Data as given in US20250049930A1, “PROTAC MOLECULES TARGETING FOXP3 AND USES THEREOF” (CEDARS-SINAI MEDICAL CENTER, priority 2022, published 2025).
pKd: −log10 of the molar value. Residues, ends and D or L forms follow the SMILES beside them. *: point of attachment. X1 = O=C1CCC(N2C(=O)c3cccc(*)c3C2=O)C(=O)N1; PEG4 = NCCOCCOCCOCCOCCC(=O)O

Legend:
[1] = system: RENCA tumors; test: Subcutaneous RENCA tumor growth in mice; format: in vivo; settings: s.c. RENCA in Balb/C mice, i.p. treatment from day 10, vs saline
Description: Mice: Balb/C mice, 5-8 weeks old, were purchased from Jackson laboratory (Ellsworth, Maine) and housed under pathogen free conditions. All experiments involving animals followed federal and state standards, which include the federal Animal Welfare Act and the NIH guide for the care and use of laboratory animals. The RENCA tumors were generated by subcutaneously injecting 2×10^5 tumor cells into the frank. The day tumor cells were injected was considered day 0. PF (0.1 mmol), PC (0.1 mmol) or P60 (100 ug) was administered i.p. twice a week starting on day 10; αPD1 (200 μg) was administered i.p. twice a week starting on day 5; temsirolimus (15 μg) was administered i.p. every other day, starting on day 10. All drugs were administered throughout the experimental course unless indicated. CD8 cells were depleted with a one-time αCD8 (200 μg) i.p. administration on day 2.
In cancer, Tregs can suppress the antitumor immune response, which is primarily mediated by CD8+ lymphocytes. Therefore, PF was administered to mice to enhance antitumor immunity and suppress growth of syngeneic mouse kidney cancer, which is considered an immunoresponsive cancer type. Mice tumors were established by injecting RENCA cells subcutaneously in the flank of Balb/C mice (5-7 mice per group). RENCA cells were injected subcutaneously to establish palpable tumors, and 10 days later mice were treated i.p., twice a week throughout the experiment, with PF, PC, P60 or Saline (FIG. 3D). Pomalidomide conjugated to (PEG)4 (PROTAC-control; PC) and P60 served as controls. […] In summary, PF decreased the immunosuppressive function of Tregs in vitro and decreased tumor growth in mice. […]
All immunotherapies, particularly when multi-drug combinations are involved, may have off-target effects. For example, drugs may have direct effects on the tumor, inhibiting tumor proliferation or inducing tumor apoptosis. Mice tumors were established by injecting RENCA cell subcutaneously in the flank of Balb/C mice (6-8 mice per group). 10 days later, mice were treated with PF twice per week. CD8 lymphocytes were depleted with αCD8 administered i.p. 2 days after injection of tumor cells. Mice in indicated groups received i.p. αPD1, twice a week, starting day 5 (FIG. 5A). Mice in indicated groups received i.p. temsirolimus every other day for 14 days, starting on days 10 (FIG. 5B). Tumor growth was monitored in these groups. […]

[2] = biological target: ternary complex consisting of cereblon, FoxP3, and P-FoxP3 (Homo sapiens, UniProt Q96SW2+Q9BZS1); test: SPR assay, ternary complex cooperativity; format: binding
Chain of ternary complex consisting of cereblon, FoxP3, and P-FoxP3 (Q96SW2 whole entry): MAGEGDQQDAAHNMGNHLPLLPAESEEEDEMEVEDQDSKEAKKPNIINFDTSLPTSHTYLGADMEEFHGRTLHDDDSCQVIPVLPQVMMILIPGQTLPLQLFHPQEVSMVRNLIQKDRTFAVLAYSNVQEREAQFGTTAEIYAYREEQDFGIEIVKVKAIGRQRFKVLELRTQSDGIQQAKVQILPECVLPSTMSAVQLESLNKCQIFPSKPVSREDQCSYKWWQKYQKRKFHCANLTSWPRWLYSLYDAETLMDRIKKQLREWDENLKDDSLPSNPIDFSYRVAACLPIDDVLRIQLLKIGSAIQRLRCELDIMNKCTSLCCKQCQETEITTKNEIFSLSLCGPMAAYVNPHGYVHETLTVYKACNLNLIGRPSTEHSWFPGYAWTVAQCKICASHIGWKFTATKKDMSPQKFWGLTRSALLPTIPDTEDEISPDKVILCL
Chain of ternary complex consisting of cereblon, FoxP3, and P-FoxP3 (Q9BZS1 whole entry): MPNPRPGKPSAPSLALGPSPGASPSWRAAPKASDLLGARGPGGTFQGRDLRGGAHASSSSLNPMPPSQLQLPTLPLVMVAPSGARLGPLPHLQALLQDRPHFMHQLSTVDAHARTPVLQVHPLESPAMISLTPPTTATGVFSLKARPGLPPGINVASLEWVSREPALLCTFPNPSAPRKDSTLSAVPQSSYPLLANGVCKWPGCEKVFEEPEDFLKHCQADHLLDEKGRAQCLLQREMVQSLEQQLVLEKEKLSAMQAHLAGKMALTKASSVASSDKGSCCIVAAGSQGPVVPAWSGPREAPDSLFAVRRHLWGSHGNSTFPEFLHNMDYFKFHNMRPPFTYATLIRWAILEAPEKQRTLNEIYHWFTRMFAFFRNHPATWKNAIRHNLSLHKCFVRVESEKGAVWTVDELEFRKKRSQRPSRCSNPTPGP
Description: The SPR assay for ternary complex cooperativity was performed by BOC Sciences who provided the following details: Various concentrations of cereblon were dissolved in water and manually printed onto the 47 nm gold-coated PlexArray Nanocapture Sensor Chip (Plexera Bioscience, Seattle, WA) at 40% humidity. Each concentration was printed in replicate, and each spot contained […] of sample solution. The chip was incubated overnight in 80% humidity at 4° C., and rinsed with 10×PBST for 10 minutes, 1×PBST for 10 minutes, and deionized water twice for 10 minutes. The chip was then blocked with 5% non-fat milk in water overnight, washed as before, and then dried under a stream of nitrogen.
SPR imaging measurements were performed with PlexAray HT (Plexera Bioscience, Seattle, WA, US). Buffers and samples were injected by a non-pulsatile piston pump into the 30 μL flow cell. […] The signal changes after binding and washing (in AU) are recorded as the assay value. Selected protein-grafted regions in the SPR images were analyzed, and the average reflectivity variations of the chosen areas were plotted as a function of time. Real-time binding signals were recorded and analyzed by Data Analysis Module (DAM, Plexera Bioscience, Seattle, WA, US). […]

Compound: CSCC[C@H](NC(=O)[C@H](C)NC(=O)[C@H](Cc1ccccc1)NC(=O)[C@H](Cc1ccccc1)NC(=O)[C@@H]1CCCN1C(=O)[C@H](Cc1c[nH]c2ccccc12)NC(=O)[C@H](CCSC)NC(=O)[C@H](CCCCN)NC(=O)[C@H](CCCNC(=N)N)NC(=O)[C@H](Cc1ccccc1)NC(=O)[C@H](CO)NC(=O)[C@H](CCC(N)=O)NC(=O)[C@H](Cc1ccccc1)NC(=O)[C@H](CC(=O)O)NC(=O)[C@H](CCCNC(=N)N)NC(=O)CCOCCOCCOCCOCCNc1cccc2c1C(=O)N(C1CCC(=O)NC1=O)C2=O)C(=O)O (stereo partly shown) [PF, Pomalidomide-PEG4-RDFQSFRKMWPFFAM] ({X1-PEG4}-RDFQSFRKMWPFFAM-OH)
- tumor growth, single agent [1]: produced a decrease in tumor growth
- tumor growth, single agent ([1]; listed as P-FoxP3): appeared to decrease tumor growth compared to saline control
- pKd ([2]; SPR, cereblon printed on chip, 25° C., complex of cereblon, P-FoxP3 and recombinant FoxP3, read-out: Equilibrium dissociation constant, KD ternary): 6.36
- Cooperativity, a=KD binary/KD ternary ([2]; a>1 positively cooperative, a=1 non-cooperative, a<1 negatively cooperative): 2.27
